# In PMC3432483 (Blood Cancer Journal, 2012):
# Columns and labels:
# RPS6K = test: 320-kinase panel screen, radiometric protein kinase assay, RPS6K; type: biochemical; details: 1 μM
# MV4-11 cells [1] = test: FMCA cytotoxicity, MV4-11 cell line; type: cell-based, human
# primary AML cells [2] = test: FMCA cytotoxicity, primary AML patient cells; type: cell-based, human
# MV4-11 cells [3] = test: Apoptosis assay; type: cell-based, human; details: 10 μM, up to 48 h
# [4] = test system: HeLa, ACHN and NCI-H69 cell lines; test: FMCA cytotoxicity, solid tumor cell lines; type: cell-based, human; details: 72 h
# primary AML cells [5] = test: Mouse hollow-fiber model, primary AML cells; type: in vivo; details: NMRI male mice, 15 mg/kg s.c. twice daily, 6 days
# RPS6KA = test: Full dose-response kinase assay; type: biochemical
# FGFR2 = FGFR2 (Homo sapiens, UniProt P21802); test: biochemical
# Chain of FGFR2 (P21802 22-821): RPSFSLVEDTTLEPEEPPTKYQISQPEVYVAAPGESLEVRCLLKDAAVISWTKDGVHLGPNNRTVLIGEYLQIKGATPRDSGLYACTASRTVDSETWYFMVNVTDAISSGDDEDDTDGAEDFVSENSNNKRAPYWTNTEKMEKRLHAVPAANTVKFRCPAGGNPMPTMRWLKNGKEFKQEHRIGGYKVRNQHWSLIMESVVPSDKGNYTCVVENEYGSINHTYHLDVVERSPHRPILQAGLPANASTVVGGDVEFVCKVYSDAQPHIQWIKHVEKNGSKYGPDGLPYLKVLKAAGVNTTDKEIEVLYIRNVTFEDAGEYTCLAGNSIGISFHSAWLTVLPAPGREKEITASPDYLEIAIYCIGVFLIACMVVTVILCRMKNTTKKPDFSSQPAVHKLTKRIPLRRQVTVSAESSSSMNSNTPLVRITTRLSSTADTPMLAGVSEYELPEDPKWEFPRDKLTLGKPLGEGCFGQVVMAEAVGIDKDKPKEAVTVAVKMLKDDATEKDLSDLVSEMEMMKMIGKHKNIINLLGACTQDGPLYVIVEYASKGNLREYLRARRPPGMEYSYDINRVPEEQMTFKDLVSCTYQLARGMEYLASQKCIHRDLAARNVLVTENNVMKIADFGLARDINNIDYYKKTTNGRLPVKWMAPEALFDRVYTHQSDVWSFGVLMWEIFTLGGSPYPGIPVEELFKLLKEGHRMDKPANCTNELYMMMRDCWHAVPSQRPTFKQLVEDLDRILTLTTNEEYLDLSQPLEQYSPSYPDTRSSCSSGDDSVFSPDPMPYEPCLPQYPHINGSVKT
# MOLM-13 cells = test: Alamar Blue cytotoxicity, MOLM-13 cells; type: cell-based; details: Homo sapiens, MOLM-13, read-out: cytotoxic activity IC50, MOLM-13
# AKT 1, 2, 3 = test: AKT radiometric protein kinase assay; type: biochemical; details: 1 μM, 60 min
# MV4-11 cells [6] = test: Combination studies with cytarabine or daunorubicin
# Plasma protein binding = type: in vitro ADME
# VEGFR2 = VEGFR2 (Homo sapiens, UniProt P35968); test: Full dose-response kinase assay; type: biochemical
# Chain of VEGFR2 (P35968 20-1356): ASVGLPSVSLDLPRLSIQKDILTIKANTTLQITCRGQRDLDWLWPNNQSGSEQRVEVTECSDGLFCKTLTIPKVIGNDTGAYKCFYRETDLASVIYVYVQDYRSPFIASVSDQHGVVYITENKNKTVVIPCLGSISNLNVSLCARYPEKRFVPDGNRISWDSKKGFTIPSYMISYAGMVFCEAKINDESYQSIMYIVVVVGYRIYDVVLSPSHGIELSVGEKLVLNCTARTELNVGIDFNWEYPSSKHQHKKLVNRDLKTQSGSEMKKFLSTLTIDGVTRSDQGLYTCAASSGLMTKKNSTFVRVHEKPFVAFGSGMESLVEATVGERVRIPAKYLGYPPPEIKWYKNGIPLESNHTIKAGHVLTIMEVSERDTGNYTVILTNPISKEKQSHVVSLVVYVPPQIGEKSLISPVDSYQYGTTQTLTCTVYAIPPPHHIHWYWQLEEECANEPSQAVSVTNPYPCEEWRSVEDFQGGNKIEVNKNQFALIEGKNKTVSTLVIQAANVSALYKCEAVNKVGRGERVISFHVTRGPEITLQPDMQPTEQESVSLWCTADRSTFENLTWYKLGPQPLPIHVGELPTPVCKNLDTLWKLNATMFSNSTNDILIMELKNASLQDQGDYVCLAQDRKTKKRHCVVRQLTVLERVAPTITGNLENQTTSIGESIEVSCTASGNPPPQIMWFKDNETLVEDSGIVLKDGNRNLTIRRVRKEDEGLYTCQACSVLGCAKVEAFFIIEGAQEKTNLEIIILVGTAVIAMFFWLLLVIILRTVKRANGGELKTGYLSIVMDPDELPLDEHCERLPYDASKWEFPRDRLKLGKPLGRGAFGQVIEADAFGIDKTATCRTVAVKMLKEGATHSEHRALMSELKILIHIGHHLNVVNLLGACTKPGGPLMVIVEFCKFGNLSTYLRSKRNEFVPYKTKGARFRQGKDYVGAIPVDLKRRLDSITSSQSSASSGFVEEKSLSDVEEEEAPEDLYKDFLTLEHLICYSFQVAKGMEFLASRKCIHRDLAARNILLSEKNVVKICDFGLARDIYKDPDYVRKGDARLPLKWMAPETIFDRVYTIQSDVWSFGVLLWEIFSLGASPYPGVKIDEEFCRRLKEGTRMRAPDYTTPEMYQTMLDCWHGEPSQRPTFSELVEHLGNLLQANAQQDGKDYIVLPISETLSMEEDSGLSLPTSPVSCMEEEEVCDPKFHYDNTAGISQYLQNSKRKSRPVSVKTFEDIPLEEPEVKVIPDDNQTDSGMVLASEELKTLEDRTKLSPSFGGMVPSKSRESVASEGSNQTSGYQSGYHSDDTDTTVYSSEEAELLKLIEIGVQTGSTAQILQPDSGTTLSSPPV
# MV4-11 cells [7] = test: Mouse hollow-fiber model, MV4-11; type: in vivo; details: NMRI male mice, 15 mg/kg s.c. twice daily, 6 days
# ERK 1, 2 = test: ERK radiometric protein kinase assay; type: biochemical; details: 1 μM, 60 min
# CLK kinases = test: 320-kinase panel screen, radiometric protein kinase assay, CLK kinases; type: biochemical; details: 1 μM, 60 min incubation
# [8] = Pharmacokinetic studies in C57 black mice; type: in vivo, mouse
# CDC-like kinase 1 (CLK1) = CDC-like kinase 1 (CLK1) (Homo sapiens, UniProt P49759); test: Full dose-response kinase assay; type: biochemical
# Chain of CDC-like kinase 1 (CLK1) (P49759 whole entry): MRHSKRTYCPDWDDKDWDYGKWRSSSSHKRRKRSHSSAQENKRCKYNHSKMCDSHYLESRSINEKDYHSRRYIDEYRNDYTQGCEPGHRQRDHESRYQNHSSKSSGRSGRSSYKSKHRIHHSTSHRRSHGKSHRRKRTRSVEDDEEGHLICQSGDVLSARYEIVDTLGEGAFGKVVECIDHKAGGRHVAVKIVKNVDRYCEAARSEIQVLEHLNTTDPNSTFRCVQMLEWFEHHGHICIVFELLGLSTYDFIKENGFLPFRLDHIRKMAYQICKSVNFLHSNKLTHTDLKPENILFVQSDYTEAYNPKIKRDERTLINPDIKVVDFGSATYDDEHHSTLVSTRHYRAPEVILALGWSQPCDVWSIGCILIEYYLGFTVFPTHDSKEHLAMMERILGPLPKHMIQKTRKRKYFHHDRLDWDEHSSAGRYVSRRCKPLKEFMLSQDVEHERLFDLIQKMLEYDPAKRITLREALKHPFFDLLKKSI
smiles,measurement,setting,value
"CC(C)(C)c1cc(NC(=O)Nc2ccc(-c3cn4c(n3)sc3cc(OCCN5CCOCC5)ccc34)cc2)no1 [AC220, reference compound]",inhibition of RPS6K in kinase-panel screen,RPS6K,did not inhibit
same,cytotoxic efficacy in MV4-11,MV4-11 cells [1]; FMCA dose-response,full efficacy
same,cytotoxic response in primary AML samples,"primary AML cells [2]; FMCA, 11 additional AML patient samples (UPN 14-24)",varied considerably
"Nc1ncc(-c2ccncc2)nc1Nc1ccc2[nH]ccc2c1 [AKN-028, N-3-(1H-indol-5-yl)-5-pyridin-4-yl-pyrazine-2,3-diamine]",apoptosis / caspase 3 activation in MV4-11,MV4-11 cells [3],induced apoptosis by activation of caspase 3
same,"cytotoxic effect in solid tumor cell lines HeLa, ACHN and NCI-H69",[4],Almost no effect
same,"net growth in hollow fibers, primary AML sample UPN25",primary AML cells [5],no significant inhibition
same,"net growth in hollow fibers, primary AML sample UPN26",primary AML cells [5],inhibited net growth
same,IC50 RPS6KA,RPS6KA,220 nℳ nM
same,IC50,FGFR2,1200 nM
same,IC50,MOLM-13 cells,< 50 nM
same,"inhibition of AKT 1, 2, 3","AKT 1, 2, 3",No direct inhibition
same,drug interaction (mean combination index) with cytarabine,"MV4-11 cells [6]; cytarabine simultaneously or 24 h before AKN-028, cytarabine:AKN-028 2.5:1",synergy
same,drug interaction (mean combination index) with daunorubicin,"MV4-11 cells [6]; daunorubicin simultaneously or 24 h before AKN-028, daunorubicin:AKN-028 1:20",synergy
same,drug interaction (mean combination index) with cytarabine,"MV4-11 cells [6]; pre-treated with AKN-028 24 h, followed by cytarabine",antagonism
same,drug interaction (mean combination index) with daunorubicin,"MV4-11 cells [6]; pre-treated with AKN-028 24 h, followed by daunorubicin",antagonism
same,fraction unbound,Plasma protein binding,0.035
same,IC50,VEGFR2,520 nM
same,"remaining enzyme activity, RPS6K",RPS6K; 60 min incubation,Less than 20%
same,"net growth in hollow fibers, MV4-11",MV4-11 cells [7],reduced the tumor mass
same,"inhibition of ERK 1, 2","ERK 1, 2",No direct inhibition
same,"remaining enzyme activity, CLK kinases",CLK kinases,Less than 20%
same,IC50,"MV4-11 cells [1]; Homo sapiens, MV4-11, 72 h, read-out: cytotoxic activity IC50, MV4-11",< 50 nM
same,IC50,"primary AML cells [2]; Homo sapiens, read-out: mean IC50, primary AML samples, n=15 samples",1000 nM
same,plasma target concentration,[8]; IC90 divided by fraction unbound,1 to 3 µM
same,predicted exposure time above plasma target concentration,"[8]; hollow-fiber experiment, twice daily, target 1–3 μM",1 h
same,IC50,CDC-like kinase 1 (CLK1),140 nM
